Measured values published in the supplement of paper PMC10733146.

Experiments:
Assay in all cases: viability relative to DMSO control (fraction); higher = less drug effect (more viable cells)
Details in all cases: 48 h
[1] = tested on: primary T-NHL patient cells (S058)
Method in brief: (§1)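 Using 384-well plates with compounds already plated at five concentrations, one well per concentration, 4 × 10^4 primary mononuclear tumour cells were added per well. Cells were Ficoll-isolated from blood or bone marrow or came from processed lymph node, fresh or cryopreserved. They were kept for 48 h at 37 °C and 5% CO2 in RPMI-1640 supplemented with penicillin/streptomycin, L-glutamine and human serum, and viability was read as CellTiter-Glo luminescence relative to the median of 16 inner DMSO wells.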

[2] = tested on: primary AML patient cells (S021)
Method in brief: as §1

[3] = tested on: primary AML patient cells (S011)
Method in brief: as §1

[4] = tested on: primary AML patient cells (S037)
Method in brief: as §1

[5] = tested on: primary AML patient cells (S081)
Method in brief: as §1

[6] = tested on: primary AML patient cells (S089)
Method in brief: as §1

[7] = tested on: primary DLBCL patient cells (S049)
Method in brief: as §1

[8] = tested on: primary AML patient cells (S091)
Method in brief: as §1

[9] = tested on: primary AML patient cells (S025)
Method in brief: as §1

[10] = tested on: primary AML patient cells (S007)
Method in brief: as §1

[11] = tested on: primary AML patient cells (S019)
Method in brief: as §1

[12] = tested on: primary ALL patient cells (S048)
Method in brief: as §1

[13] = tested on: primary T-PLL patient cells (S008)
Method in brief: as §1

[14] = tested on: primary MCL patient cells (S068)
Method in brief: as §1

[15] = tested on: primary FL patient cells (S022)
Method in brief: as §1

[16] = tested on: primary AML patient cells (S027)
Method in brief: as §1

[17] = tested on: primary DLBCL patient cells (S076)
Method in brief: as §1

[18] = tested on: primary AML patient cells (S002)
Method in brief: as §1

Question: Which results are given for Cc1sc2c(c1C)C(c1ccc(Cl)cc1)=N[C@@H](CC(=O)Nc1ccc(O)cc1)c1nnc(C)n1-2 [OTX015]?
Answer: viability ([1]; 0.016 µM): 1.09; viability ([1]; 0.08 µM): 0.875; viability ([1]; 0.4 µM): 0.764; viability ([1]; 2 µM): 0.576; viability ([1]; 10 µM): 0.591; viability ([2]; 0.016 µM): 0.937; viability ([2]; 0.08 µM): 1.02; viability ([2]; 0.4 µM): 0.894; viability ([2]; 2 µM): 0.815; viability ([2]; 10 µM): 0.634; viability ([3]; 0.016 µM): 1; viability ([3]; 0.08 µM): 0.899; viability ([3]; 0.4 µM): 0.766; viability ([3]; 2 µM): 0.742; viability ([3]; 10 µM): 0.758; viability ([4]; 0.016 µM): 1.11; viability ([4]; 0.08 µM): 0.851; viability ([4]; 0.4 µM): 1; viability ([4]; 2 µM): 0.716; viability ([4]; 10 µM): 0.97; viability ([5]; 0.016 µM): 0.847; viability ([5]; 0.08 µM): 0.793; viability ([5]; 0.4 µM): 0.475; viability ([5]; 2 µM): 0.257; viability ([5]; 10 µM): 0.205; viability ([6]; 0.016 µM): 0.894; viability ([6]; 0.08 µM): 0.848; viability ([6]; 0.4 µM): 0.546; viability ([6]; 2 µM): 0.398; viability ([6]; 10 µM): 0.311; viability ([7]; 0.016 µM): 1.02; viability ([7]; 0.08 µM): 0.891; viability ([7]; 0.4 µM): 0.482; viability ([7]; 2 µM): 0.2; viability ([7]; 10 µM): 0.119; viability ([8]; 0.016 µM): 0.741; viability ([8]; 0.08 µM): 0.478; viability ([8]; 0.4 µM): 0.276; viability ([8]; 2 µM): 0.25; viability ([8]; 10 µM): 0.254; viability ([9]; 0.016 µM): 0.87; viability ([9]; 0.08 µM): 0.971; viability ([9]; 0.4 µM): 0.767; viability ([9]; 2 µM): 0.629; viability ([9]; 10 µM): 0.549; viability ([10]; 0.016 µM): 1.16; viability ([10]; 0.08 µM): 1.08; viability ([10]; 0.4 µM): 0.561; viability ([10]; 2 µM): 0.335; viability ([10]; 10 µM): 0.24; viability ([11]; 0.016 µM): 1.14; viability ([11]; 0.08 µM): 1.12; viability ([11]; 0.4 µM): 1.08; viability ([11]; 2 µM): 0.985; viability ([11]; 10 µM): 0.965; viability ([12]; 0.016 µM): 1.1; viability ([12]; 0.08 µM): 1.04; viability ([12]; 0.4 µM): 0.552; viability ([12]; 2 µM): 0.305; viability ([12]; 10 µM): 0.241; viability ([13]; 0.016 µM): 1.02; viability ([13]; 0.08 µM): 1.01; viability ([13]; 0.4 µM): 0.983; viability ([13]; 2 µM): 0.996; viability ([13]; 10 µM): 1.02; viability ([14]; 0.016 µM): 0.856; viability ([14]; 0.08 µM): 0.616; viability ([14]; 0.4 µM): 0.266; viability ([14]; 2 µM): 0.2; viability ([14]; 10 µM): 0.184; viability ([15]; 0.016 µM): 0.981; viability ([15]; 0.08 µM): 0.971; viability ([15]; 0.4 µM): 0.955; viability ([15]; 2 µM): 0.897; viability ([15]; 10 µM): 0.874; viability ([16]; 0.016 µM): 0.93; viability ([16]; 0.08 µM): 0.894; viability ([16]; 0.4 µM): 0.73; viability ([16]; 2 µM): 0.536; viability ([16]; 10 µM): 0.408; viability ([17]; 0.016 µM): 1.05; viability ([17]; 0.08 µM): 0.942; viability ([17]; 0.4 µM): 0.802; viability ([17]; 2 µM): 0.699; viability ([17]; 10 µM): 0.6; viability ([18]; 0.016 µM): 0.853; viability ([18]; 0.08 µM): 0.565; viability ([18]; 0.4 µM): 0.396; viability ([18]; 2 µM): 0.315; viability ([18]; 10 µM): 0.317

Question: What does the source list for Cc1nc(Nc2ncc(C(=O)Nc3c(C)cccc3Cl)s2)cc(N2CCN(CCO)CC2)n1 [Dasatinib]?
Answer: viability ([1]; 0.0016 µM): 0.962; viability ([1]; 0.008 µM): 0.836; viability ([1]; 0.04 µM): 0.861; viability ([1]; 0.2 µM): 0.834; viability ([1]; 1 µM): 0.855; viability ([2]; 0.0016 µM): 0.964; viability ([2]; 0.008 µM): 0.799; viability ([2]; 0.04 µM): 0.73; viability ([2]; 0.2 µM): 0.615; viability ([2]; 1 µM): 0.638; viability ([3]; 0.0016 µM): 1.06; viability ([3]; 0.008 µM): 0.884; viability ([3]; 0.04 µM): 0.909; viability ([3]; 0.2 µM): 0.882; viability ([3]; 1 µM): 0.936; viability ([4]; 0.0016 µM): 1.04; viability ([4]; 0.008 µM): 1.01; viability ([4]; 0.04 µM): 1; viability ([4]; 0.2 µM): 0.982; viability ([4]; 1 µM): 1.03; viability ([5]; 0.0016 µM): 1.14; viability ([5]; 0.008 µM): 1.01; viability ([5]; 0.04 µM): 0.693; viability ([5]; 0.2 µM): 0.54; viability ([5]; 1 µM): 0.764; viability ([6]; 0.0016 µM): 0.976; viability ([6]; 0.008 µM): 1.03; viability ([6]; 0.04 µM): 0.576; viability ([6]; 0.2 µM): 0.504; viability ([6]; 1 µM): 0.537; viability ([7]; 0.0016 µM): 0.952; viability ([7]; 0.008 µM): 0.83; viability ([7]; 0.04 µM): 0.814; viability ([7]; 0.2 µM): 0.497; viability ([7]; 1 µM): 0.33; viability ([8]; 0.0016 µM): 0.951; viability ([8]; 0.008 µM): 0.924; viability ([8]; 0.04 µM): 0.787; viability ([8]; 0.2 µM): 0.784; viability ([8]; 1 µM): 1.29; viability ([9]; 0.0016 µM): 0.961; viability ([9]; 0.008 µM): 1.02; viability ([9]; 0.04 µM): 0.978; viability ([9]; 0.2 µM): 0.965; viability ([9]; 1 µM): 1.14; viability ([10]; 0.0016 µM): 0.89; viability ([10]; 0.008 µM): 0.964; viability ([10]; 0.04 µM): 0.917; viability ([10]; 0.2 µM): 0.837; viability ([10]; 1 µM): 0.755; viability ([11]; 0.0016 µM): 1.14; viability ([11]; 0.008 µM): 1.14; viability ([11]; 0.04 µM): 1.07; viability ([11]; 0.2 µM): 0.986; viability ([11]; 1 µM): 1.02; viability ([12]; 0.0016 µM): 1.05; viability ([12]; 0.008 µM): 0.937; viability ([12]; 0.04 µM): 0.911; viability ([12]; 0.2 µM): 0.864; viability ([12]; 1 µM): 0.926; viability ([13]; 0.0016 µM): 1; viability ([13]; 0.008 µM): 0.974; viability ([13]; 0.04 µM): 0.968; viability ([13]; 0.2 µM): 0.973; viability ([13]; 1 µM): 0.996; viability ([14]; 0.0016 µM): 0.912; viability ([14]; 0.008 µM): 0.671; viability ([14]; 0.04 µM): 0.4; viability ([14]; 0.2 µM): 0.341; viability ([14]; 1 µM): 0.357; viability ([15]; 0.0016 µM): 0.931; viability ([15]; 0.008 µM): 0.857; viability ([15]; 0.04 µM): 0.841; viability ([15]; 0.2 µM): 0.773; viability ([15]; 1 µM): 0.698; viability ([16]; 0.0016 µM): 1.06; viability ([17]; 0.0016 µM): 0.835; viability ([17]; 0.008 µM): 0.672; viability ([17]; 0.04 µM): 0.628; viability ([17]; 0.2 µM): 0.532; viability ([17]; 1 µM): 0.535; viability ([18]; 0.0016 µM): 0.979; viability ([18]; 0.008 µM): 1.04; viability ([18]; 0.04 µM): 0.799; viability ([18]; 0.2 µM): 0.764; viability ([18]; 1 µM): 1.04
